# Patent publication US20100215653A1, “METHODS OF TREATING NEOPLASTIC, AUTOIMMUNE AND INFLAMMATORY DISEASES” (Seattle Genetics, Inc., priority 2006, published 2010)
# “Also recorded” adds a separate entry of the source.
# Key:
# CD33 = CD33 (Homo sapiens, UniProt P20138); assay: CD33 tyrosine phosphorylation (CD33 immunoprecipitation, anti-phosphotyrosine Western blot); format: cell-based; set-up: endogenous in cells; host or cells: HL-60, U937; primary human CD14+ monocytes and PBMC-derived macrophages
# CD33, sequence (P20138 18-364): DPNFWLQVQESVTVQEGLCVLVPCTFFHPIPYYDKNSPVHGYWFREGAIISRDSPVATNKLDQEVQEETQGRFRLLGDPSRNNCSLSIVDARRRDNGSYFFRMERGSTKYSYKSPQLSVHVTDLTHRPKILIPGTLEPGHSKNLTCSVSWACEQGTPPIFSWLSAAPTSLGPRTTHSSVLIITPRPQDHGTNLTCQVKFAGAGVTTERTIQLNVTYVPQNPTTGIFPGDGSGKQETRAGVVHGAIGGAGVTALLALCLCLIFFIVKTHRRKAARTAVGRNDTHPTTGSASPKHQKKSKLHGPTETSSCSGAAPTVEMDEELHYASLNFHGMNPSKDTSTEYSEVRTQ
# Procedure: CD33-positive cell lines were treated with anti-CD33 antibodies (lintuzumab and certain commercially available antibodies). Cell extracts were prepared and CD33 was immunoprecipitated using an anti-CD33 antibody (MY9 clone; Beckman Coulter, Calif.). Western blotting was performed with an anti-phosphotyrosine antibody (4G10; Upstate Biotechnologies, Inc., Lake Placid, N.Y.).
# Deglycosylation was confirmed by CE-SDS. […] Cell lysates were prepared and CD33 immunoprecipitated using an anti-CD33 rabbit polyclonal antibody (Santa Cruz Biotechnology, Santa Cruz, Calif.) prior to SDS PAGE gel electrophoresis. Western blot analyses of these samples were performed using the 4G10 phosphotyrosine antibody (Upstate Biotechnology, Temucula, Calif.), anti-CD33 antibody (NovoCastra, Norwell, Mass.), and anti-SHP-1 antibody (Calbiochem, San Diego, Calif.). Control lysate for SHP-1 was prepared from a B cell lymphoma cell line.
# [1] = tested on: primary human macrophages; assay: Cytokine, chemokine and growth factor production by primary human macrophages; format: cell-based
# Procedure: Primary human macrophages were generated from long-term cultures of freshly isolated human peripheral blood mononuclear cells (PBMCs; AllCells, Emeryville, Calif. or LifeBlood, Memphis, Tenn.). PBMCs were cultured in tissue culture flasks in RPMI 1640 medium containing glutamine (Invitrogen, Grand Island, N.Y.), 10% heat-inactivated FBS, and antibiotics for 3 to 4 hours. Non-adherent cells were removed by washing with PBS and the adherent cells were cultured in OptiMem-I medium (Invitrogen) containing 1% heat-inactivated FBS for 1 to 2 hours. The cells were washed with PBS and cultured for 10 to 14 days in X-VIVO-15 medium (Cambrex Bio Science, Walkersville, Md.) containing 500 U/ml GM-CSF (Peprotech, Rocky Hill, N.J.).
# Tissue culture media was harvested 18 h later for cytokine analyses by ELISA or Searchlight (Pierce Endogen, Rockville, Ill.).
# [2] = tested on: relapsed and refractory acute myeloid leukemia (AML); conditions: low dose, infrequent administration; cited from earlier work
# [3] = tested on: primary human CD14+ monocytes; assay: Cell viability (CelltiterGlo) of primary human CD14+ monocytes; format: cell-based; conditions: 48 hours of exposure to increasing concentrations (FIG. 13)
# Procedure: Macrophages were harvested, counted, and cultured in 96-well plates at 35,000 cells per well. G-CSF-mobilized CD14^+ monocytes (Cambrex) were cultured in 96-well plates at 100,000 cells per well (adherent cells) in sterile polypropylene dishes (non-adherent cells).
# HL-60 cells = assay: HL-60 disseminated AML model in mice; format: in vivo
# Procedure: Mice were implanted with an AML cell line, HL-60, as follows: 5 million HL-60 cells were injected intravenously. The mice were treated with lintuzumab (10 mg/kg, q4dx4, ip), cytarabine (1 mg/kg, 5 mg/kg or 25 mg/kg, q1dx10, ip; or 50 mg/kg or 100 mg/kg, q2dx5, ip) or lintuzumab with cytarabine (dosed as described previously). Treatment began on day one. Referring to FIG. 22, the control mice or mice treated with placebo (0.9% saline) were removed from the study by day 80, due to tumor progression.
# To confirm the data of the in vitro study, mice were implanted with an AML cell line, HL-60, as follows: 5 million HL-60 cells were injected intravenously. […] Treatment began on day one. Referring to FIG. 24, the control mice were removed from the study by about day 60 due to tumor progression. Mice treated with lenalidomide were removed from study by about day 90 for similar reasons.
# The MDR-negative HL60 cell line and the MDR-positive HEL9217 and TF1-α cell lines were used. […] Disease symptoms typically developed between about 35 and about 80 days, and included hind limb paralysis, scruffy coat, weight loss, palpable tumors, and/or tumor masses in bone, peritoneal cavity, or soft tissues. Human CD33+ tumor cells were detected in the blood, bone marrow, and lymph nodes of the majority of the mice by flow cytometry (FIG. 25). Solid tumors associated with bone or soft tissues were found in 20 to 60% of the mice.
# HEL 92.1.7 cells = assay: Complement-dependent cytotoxicity (CDC) activity; format: cell-based, human; conditions: MDR+, CD33-positive HEL 92.1.7 cells (FIG. 4)
# Procedure: The purpose of this study was to determine whether the cytotoxic effects of an anti-CD33 antibody (HuM195) on AML cells could be enhanced by combination treatment with chemotherapeutic drugs. An MDR^+, CD33-positive AML cell line (HEL 92.1.7) was either untreated or preincubated with the indicated concentrations of thalidomide or 5-azacytidine for two hours prior to exposure to the anti-CD33 Ab. Cytotoxic activity was measured using a complement-dependent cytotoxicity (CDC) activity.
substance,measurement,setting,value
"SGN-33: anti-CD33 antibody, a humanized version of mouse monoclonal antibody M195",phosphorylation of CD33,CD33; HL-60 AML cells (FIG. 16),induced phosphorylation of CD33
same,CD33 tyrosine phosphorylation,"CD33; HL-60 and U937 cells, soluble or cross-linked antibody (FIG. 2)",stimulated CD33 tyrosine phosphorylation
same,CD33 tyrosine phosphorylation,"CD33; HL-60 cells, soluble and cross-linked antibody (FIG. 1)",stimulated CD33 tyrosine phosphorylation
same,"production of IL-6, TNF-α, RANTES and MCP-1","[1]; macrophages pre-incubated 3 hours with SGN-33, response to IFN-γ or conditioned media from RPMI-8226 and Karpus-620 cells, 24 h","reduced production of IL-6, TNF-α, RANTES, and MCP-1"
same,levels of TNF-α,"[1]; primary human macrophages, various doses 1 hr before IFN-γ, 18 h, p<0.05 (FIG. 20)",significantly reduced levels of TNF-α in a dose-dependent manner
same,blast cells in patients,[2],induced significant reductions in blast cells
same,cell viability of monocytes,[3],not due to an adverse effect; also recorded: does not affect the viability
same,survival,"HL-60 cells; HL60 model, SCID mice, q4dx4, p<0.005 (FIG. 26)",> 100 days
same,increase of survival,"HL-60 cells; MDR-negative HL60 model, 3 to 30 mg/kg, p<0.0001",> 100 days
same,survival rate,HL-60 cells; SGN-33 30 mg/kg q4dx5 ip (FIG. 24),~85%
same,survival rate,HL-60 cells; SGN-33 3 or 10 mg/kg q4dx5 ip (FIG. 24),~50%
same,lysis of AML cells (CDC),HEL 92.1.7 cells,increased lysis of AML cell lines in a dose-dependent manner
